In article PMC7413254 (Nature Communications, 2020):

Key:
Assay type in all cases: cell-based, Plasmodium falciparum
[1] = tested on: C4^Dd2 versus C2^GC03 infected erythrocytes; assay: Peptidomic analysis, peptide levels in C4^Dd2 relative to C2^GC03 parasites (LC-MS)
PfCRT^Dd2 = assay: cell-based; details: for PfCRT-mediated [3H]CQ transport, trans-stimulation (% PfCRTDd2 control): PfCRTDd2 oocytes, normalised to oocyte type control; for [3H]CQ transport (% PfCRTDd2 control), trans-stimulation, PfCRTDd2: PfCRT-mediated component (background subtracted), mean ± SEM, SEM
Method in brief: (§1)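 Oocytes (ten per treatment, ≥4 independent frogs/days) were preloaded by injecting VF-6 in 25 nL ND96 at pH 5.0, 5.5, 6.0 or 7.0, or Na^+-free choline buffer, then uptake run 1.5 h, 27.5 °C, ND96 pH 5.5 by default. Internal concentrations assumed ~400 nL oocyte volume.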

PfCRT^Ecu1110 = assay: cell-based; details: for PfCRT-mediated [3H]CQ transport, trans-stimulation (% PfCRTEcu1110 control): PfCRTEcu1110 oocytes, normalised to oocyte type control; for [3H]CQ transport (% PfCRTDd2 control), trans-stimulation, PfCRTEcu1110: PfCRT-mediated component (background subtracted), sheet title says normalised to PfCRTDd2 control, mean ± SEM, SEM
Method in brief: as §1

[2] = [test solute]i = 5 mM (intracellular)
[3] = [test solute]i = 45 mM (intracellular; 30 mM for some solutes due to solubility)
[4] = [test solute]i = 5 mM (injected)
[5] = [test solute]i = 45 mM (30 mM for some solutes due to solubility)

PHFD [PD-4]
Assignment as substrate or not a substrate based on accumulation ratios from peptidomic data ([1]; Peptides tested before peptidomic data was obtained): substrate

N[C@@H](Cc1c[nH]cn1)C(=O)O [L-histidine]
PfCRT-mediated [3H]CQ transport, trans-stimulation (% PfCRTDd2 control) (PfCRT^Dd2; [2]): 99 ± 3.9 % PfCRTDd2 control
PfCRT-mediated [3H]CQ transport, trans-stimulation (% PfCRTDd2 control) (PfCRT^Dd2; [3]): 95 ± 2.5 % PfCRTDd2 control
[3H]CQ transport (% PfCRTDd2 control), trans-stimulation, PfCRTDd2 (PfCRT^Dd2; [4]): 99 ± 3.9 % PfCRTDd2 control
[3H]CQ transport (% PfCRTDd2 control), trans-stimulation, PfCRTDd2 (PfCRT^Dd2; [5]): 95 ± 2.5 % PfCRTDd2 control
PfCRT-mediated [3H]CQ transport, trans-stimulation (% PfCRTEcu1110 control) (PfCRT^Ecu1110; [2]): 98 ± 2.8 % PfCRTEcu1110 control
PfCRT-mediated [3H]CQ transport, trans-stimulation (% PfCRTEcu1110 control) (PfCRT^Ecu1110; [3]): 97 ± 4.1 % PfCRTEcu1110 control
[3H]CQ transport (% PfCRTDd2 control), trans-stimulation, PfCRTEcu1110 (PfCRT^Ecu1110; [4]): 33 ± 2.2 % PfCRTEcu1110 control
[3H]CQ transport (% PfCRTDd2 control), trans-stimulation, PfCRTEcu1110 (PfCRT^Ecu1110; [5]): 32 ± 1.6 % PfCRTEcu1110 control

DPVN [DN-4]
Assignment as substrate or not a substrate based on accumulation ratios from peptidomic data ([1]; Peptides tested after peptidomic data was obtained): substrate
